Assay [1] deals with T1, hSLC13A5 (Homo sapiens, UniProt Q86YT5). The assay can be described thus: HepG2/14C-citrate uptake assay. Further details: HepG2 cells endogenously express hSLC13A5 transporter which is responsible for the uptake of citrate into these cells; endogenous in cells; host or cells: HepG2. It is filed as cell-based. Conditions: HepG2 cells endogenously expressing hSLC13A5; Cytostar-T; 14C-citrate ~1.8 μM; incubation over night. An excerpt:
(4) HepG2/^14C-Citrate Uptake Assay
HepG2 cells endogenously expressing hSLC13A5 were obtained from the Wistar Institute (Knowles et al., Science 1980, 209, 497-499).
HepG2 cells endogenously express hSLC13A5 transporter which is responsible for the uptake of citrate into these cells. […] The uptake of ^14C-citrate into HepG2 cells is monitored using the Cytostar-T assay. This assay format is based on the imported radioactive citrate brought into proximity with the scintillant contained within the base of the plate by virtue of the biological processes within the cells. The radioactive decay is converted to a light signal based on the integration of the scintillation matrix into the assay plate.
(§1) Method: ^14C-Citrate Uptake Assay
Starting from 10 mM stock solutions in 100% DMSO, compounds are diluted in pure DMSO using the appropriate dilution steps. Prior to the uptake assay, 400 μL assay medium+4.8 μL compound solution (or pure DMSO for non-inhibited control wells) are mixed (final DMSO concentration in the assay: 1% (v/v)) ^14C-citrate working solution (volumes required per 96-well):
The HepG2 cells are cultivated in cell culture medium (EMEM+10% fetal calf serum+1×NEAA and 10 mM L-Glutamin) For the assay, the medium of the confluent cultures is discarded and the cells are washed with DPBS w/o Mg^2+ w/o Ca^2+. The cells are detached by the addition of 1.0 mL 2× Trypsin in DPBS w/o Mg^2+ w/o Ca^2+ with 7.5 mM EDTA per 75 cm^2 culture flask for up to 3 minutes at 37° C. and resuspended in 10 mL cell culture medium. Following cell counting, 100,000 cells/well are seeded in a volume of 200 μL into Cytostar-T Scintillating 96-well microplates. After overnight incubation in a humid cell culture incubator at 37° C., 5% CO2, the cell culture medium is carefully aspirated and the cells are incubated with 200 μL prewarmed (37° C.) assay medium (50% DMEM+50% Ham's F-12+15 mM HEPES (pH 7.4) (medium contains 15.5 m M D(+)-glucose) per well for at least 1 h prior to the experiment.
Immediately prior to uptake assay, the assay medium is carefully removed and 100 μL test compound dilution is added to each well (n=3).
Following a 20 min incubation at 37° C. in the cell culture incubator, 20 μL of ^14C-citrate working solution is added to each well (final volume per well: 120 μL; final ^14C-citrate concentration ˜1.8 μM/well)).
After incubation over night at 37° C. in the cell culture incubator, the plates are sealed on the top using a transparent plastic foil and on the bottom using a white plastic foil. Following the sealing, the plate is placed into the TopCount NXT HTS and the signal is recorded.
(§2) The IC50 values of the compounds are calculated in IDBS XLfit by sigmoidal dose-response (variable slope).

Assay [2] concerns the target T1, hSLC13A5. Description: Recombinant hSLC13A5/14C-citrate uptake assay. Type of assay: cell-based. Conditions: HEK293 Flp-In cells over-expressing hSLC13A5; WGA-PVT SPA beads; 14C-citrate approx. 2 μM; 4 h.
Excerpt: (5) Recombinant hSLC13A5/^14C-Citrate Uptake Assay
The human embryonic kidney 293 (HEK 293)-Flp-In cells (293Flp-In-hSLC13A5) over-expressing hSLC13A5 transporter were cloned: The originating plasmid pcDNA3.1-hSLC13A5 containing hSLC13A5 was synthesized at GeneArt. The cDNA for hSLC13A5 was taken from this plasmid by means of PCR amplification using primers with added HindIII (N-terminal) and XhoI (C-terminal) restriction sites and sub-cloned in frame into pcDNA5/FRT from Invitrogen using the respective restriction enzymes. HEK293 Flp-In cells from Invitrogen were stably co-transfected using the pcDNA/FRT-hSLC13A5 plasmid as well as the pOG44 plasmid.
HEK 293-Flp-In cells are used that stably over-express hSLC13A5 transporter which is responsible for the uptake of citrate into these cells.
The uptake of ^14C-citrate into the 293Flp-In-hSLC13A5 cells is monitored using the WGA-PVT SPA (wheat germ agglutinin-polyvinyltoluene scintillation proximity assay) beads that bind to the 293Flp-In cells due to their WGA-PVT surface. This assay format is based on the imported radioactive citrate brought into proximity with the SPA beads by virtue of the biological processes within the cells. The radioactive decay is converted into a light signal that can be measured using e.g. the TopCount plate reader.
as §1
Test Compound Dilutions (2Fold-Concentrated):
Starting from 10 mM stock solutions in 100% DMSO, compounds are diluted in pure DMSO using the appropriate dilution steps.
Prior to the uptake assay, 200 μL assay medium (lx HBSS (with Ca^2+ and Mg^2+, w/o Phenolred), contains 5.56 mM D(+)-Glucose)+19.44 mM D(+)-Glucose (final concentration of D(+)-Glucose is 25 mM))+4.8 μL compound solution (or pure DMSO for non-inhibited control wells) are mixed (final DMSO concentration in the assay: 1% (v/v)).
After preparing the 2fold-concentrated test compound dilutions, 50 μL are pipetted to each well of white OptiPlates-96 and incubated at 37° C. in an incubator.
^14C-Citrate Working Solution (Volumes Required Per 96-Well):
The 293Flp-In-hSLC13A5 cells are cultivated in cell culture medium (DMEM+10% fetal calf serum+100 μg/mL Hygromycin B). The medium of the confluent cultures is discarded and the cells are washed with DPBS (w/o Mg^2+ w/o Ca^2+). The cells are detached by the addition of 2.0 mL Accumax per 75 cm^2 culture flask for up to 3 minutes at 37° C. and resuspended in 10 mL assay medium. After cell counting, 50,000 cells/well are administered in a volume of 50 μL into the white OptiPlates-96 containing the respective test compound concentrations. Following a 20 min incubation at 37° C. in the cell culture incubator, 20 μL of ^14C-citrate working solution is added to each well (final volume per well: 120 μL; final ^14C-citrate concentration: approx. 2 μM/well).
After incubation for 4 h at 37° C. in a humid cell culture incubator and the addition of 30 μL of WGA-PVT SPA beads to each well (0.25 mg/well), the plates are sealed on the top using a transparent plastic foil. Incubate the plates for 1 h by room temperature and gentle shaking.
After incubation, the plate is placed into the TopCount NXT HTS and the signal is recorded.
The performance of the test compounds is calculated as follows:
Wells containing cells incubated with 1% DMSO only deliver values for the non-inhibited ^14C-citrate uptake into 293Flp-In-hSLC13A5 cells (100% CTL). Wells containing cells which have received 30 mM non-labelled potassium citrate solution in addition to the ^14C-citrate working solution deliver values for the background (0% CTL).
as §2

T1 sequence (Q86YT5 whole entry): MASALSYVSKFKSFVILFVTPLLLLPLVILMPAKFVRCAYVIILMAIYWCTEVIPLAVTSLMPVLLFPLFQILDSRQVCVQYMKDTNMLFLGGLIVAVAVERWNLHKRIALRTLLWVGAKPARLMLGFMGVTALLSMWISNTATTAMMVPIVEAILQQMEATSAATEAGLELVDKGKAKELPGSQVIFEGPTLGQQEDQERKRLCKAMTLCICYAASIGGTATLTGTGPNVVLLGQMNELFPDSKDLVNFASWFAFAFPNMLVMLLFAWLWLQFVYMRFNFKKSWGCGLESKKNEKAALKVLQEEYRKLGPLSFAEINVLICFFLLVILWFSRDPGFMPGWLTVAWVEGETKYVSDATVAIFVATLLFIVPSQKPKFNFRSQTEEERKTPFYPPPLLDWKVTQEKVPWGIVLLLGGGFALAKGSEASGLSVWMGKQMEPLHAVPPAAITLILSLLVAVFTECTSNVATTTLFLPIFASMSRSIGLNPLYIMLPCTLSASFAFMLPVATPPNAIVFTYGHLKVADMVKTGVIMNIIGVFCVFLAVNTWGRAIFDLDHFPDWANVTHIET

`O=C(NCc1ccc(Cl)nc1)C1CCN(S(=O)(=O)c2cc(Cl)cc(Cl)c2)CC1` [(I-3)]: the IC50 on hSLC13A5 [1] was 471 nM. In the case of `Cc1cc(C)cc(CNC(=O)C2CCN(S(=O)(=O)c3cc(Cl)cc(Cl)c3)CC2)c1` [(I-4)], the IC50 against hSLC13A5 [1] came to 94 nM. `O=C(NCc1ccccc1Br)C1CCN(S(=O)(=O)c2cc(Cl)cc(Cl)c2)CC1` [(I-6)]: the IC50 on hSLC13A5 [1] worked out at 82 nM. For the compound `O=C(NCc1ccc(Br)cc1)C1CCN(S(=O)(=O)c2cc(Cl)cc(Cl)c2)CC1` [(I-7)], on hSLC13A5 [1], the IC50 turned out to be 30 nM. Take `Cc1ccc(CNC(=O)C2CCN(S(=O)(=O)c3cc(Cl)cc(Cl)c3)CC2)cc1` [(I-8)]: at hSLC13A5 [1], the IC50 was 37 nM.

`O=C(NCc1nccs1)C1CCN(S(=O)(=O)c2cc(Cl)cc(Cl)c2)CC1` [(I-9)]: the IC50 on hSLC13A5 [2] was determined as 303 nM; on hSLC13A5 [1] it was 246 nM.

On to `O=C(NCc1ccc(Cl)cn1)C1CCN(S(=O)(=O)c2cc(Cl)cc(Cl)c2)CC1` [(I-12)], for which the IC50 was 132 nM at hSLC13A5 [2] and 103 nM at hSLC13A5 [1]. The corresponding values for `COc1ncccc1CNC(=O)C1CCN(S(=O)(=O)c2cc(Cl)cc(Cl)c2)CC1` [(I-13)] are 475 nM and 201 nM. For `Cc1csc(CNC(=O)C2CCN(S(=O)(=O)c3cc(Cl)cc(Cl)c3)CC2)n1` [(I-14)], the IC50 against hSLC13A5 [1] was 83 nM. In the case of `Cc1ccc(CNC(=O)C2CCN(S(=O)(=O)c3cc(Cl)cc(Cl)c3)CC2)cn1` [(I-16)], the figures for the IC50 on hSLC13A5 [2] and against hSLC13A5 [1] were 675 nM and 632 nM, respectively. Turning to `CCc1ccc(CNC(=O)C2CCN(S(=O)(=O)c3cc(Cl)cc(Cl)c3)CC2)nc1` [(I-17)], the IC50 is 138 nM on hSLC13A5 [2] and 130 nM on hSLC13A5 [1]. `O=C(NCc1ccccc1Cl)C1CCN(S(=O)(=O)c2cc(Cl)cc(Cl)c2)CC1` [(I-18)] returned an IC50 on hSLC13A5 [1] of 60 nM. Turning to `Cc1ccccc1CNC(=O)C1CCN(S(=O)(=O)c2cc(Cl)cc(Cl)c2)CC1` [(I-19)], the IC50 against hSLC13A5 [1] was 72 nM. Still for that read-out and setting: then `COc1ccccc1CNC(=O)C1CCN(S(=O)(=O)c2cc(Cl)cc(Cl)c2)CC1` [(I-21)], with 65 nM; and `O=C(NCc1ccc(F)cc1Cl)C1CCN(S(=O)(=O)c2cc(Cl)cc(Cl)c2)CC1` [(I-22)], with 84 nM.

`N#Cc1ccc(CNC(=O)C2CCN(S(=O)(=O)c3cc(Cl)cc(Cl)c3)CC2)c(F)c1` [(I-23)]: the IC50 on hSLC13A5 [2] is 91 nM; at hSLC13A5 [1] it was 142 nM. `O=C(NCc1cc(F)ccc1F)C1CCN(S(=O)(=O)c2cc(Cl)cc(Cl)c2)CC1` [(I-24)] returned an IC50 at hSLC13A5 [1] of 83 nM.

Take `O=C(NCc1ccc(Cl)cc1F)C1CCN(S(=O)(=O)c2cc(Cl)cc(Cl)c2)CC1` [(I-25)]: at hSLC13A5 [1], half-maximal inhibition (IC50) was put at 37 nM. Consider `O=C(NCc1cccc(Cl)n1)C1CCN(S(=O)(=O)c2cc(Cl)cc(Cl)c2)CC1` [(I-26)], for which the IC50 was found to be 449 nM at hSLC13A5 [2] and 290 nM against hSLC13A5 [1].

Take `O=C(NCc1ccc(Br)cn1)C1CCN(S(=O)(=O)c2cc(Cl)cc(Cl)c2)CC1` [(I-28)]: the IC50 is 127 nM at hSLC13A5 [2] and 171 nM against hSLC13A5 [1]. `Cc1csc(CNC(=O)C2CCN(S(=O)(=O)c3cc(Br)cc(Br)c3)CC2)n1` [(I-29)] showed a concentration for half-maximal inhibition (IC50) on hSLC13A5 [1] of 43 nM. At hSLC13A5 [1], `O=C(NCc1ccc(Cl)cc1)C1CCN(S(=O)(=O)c2cc(Br)cc(Br)c2)CC1` [(I-30)] registered an IC50 of 14 nM. In the case of `CCc1ccc(CNC(=O)C2CCN(S(=O)(=O)c3cc(Br)cc(Br)c3)CC2)nc1` [(I-31)], the results for the IC50 on hSLC13A5 [2] and against hSLC13A5 [1] were 41 nM and 66 nM, respectively.

Compound `N#Cc1ccc(CNC(=O)C2CCN(S(=O)(=O)c3cc(Br)cc(Br)c3)CC2)cc1` [(I-32)] returned an IC50 at hSLC13A5 [1] of 23 nM. As to `COc1ncccc1CNC(=O)C1CCN(S(=O)(=O)c2cc(Br)cc(Br)c2)CC1` [(I-33)], the IC50 on hSLC13A5 [2] is 275 nM; against hSLC13A5 [1] it was 182 nM.

With `COc1ccccc1CNC(=O)C1CCN(S(=O)(=O)c2cc(Br)cc(Br)c2)CC1` [(I-34)], inhibition on hSLC13A5 [1] was half-maximal at 27 nM (IC50). For `O=C(NCc1ccc(F)cn1)C1CCN(S(=O)(=O)c2cc(Br)cc(Br)c2)CC1` [(I-35)], the concentration for half-maximal inhibition (IC50) at hSLC13A5 [2] turned out to be 54 nM; on hSLC13A5 [1], 147 nM.

Take `O=C(NCc1cccnc1)C1CCN(S(=O)(=O)c2cc(Br)cc(Br)c2)CC1` [(I-36)]: the IC50 came out at 354 nM at hSLC13A5 [2] and 448 nM on hSLC13A5 [1]. `O=C(NCc1ccccn1)C1CCN(S(=O)(=O)c2cc(Br)cc(Br)c2)CC1` [(I-37)]: the figures for the IC50 at hSLC13A5 [2] and on hSLC13A5 [1] were 89 nM and 253 nM, respectively. With `O=C(NCc1ccccc1F)C1CCN(S(=O)(=O)c2cc(Br)cc(Br)c2)CC1` [(I-38)], half-maximal inhibition on hSLC13A5 [1] (IC50) was put at 14 nM. On the same count and under the same terms, then `O=C(NCc1ccc(Br)cc1)C1CCN(S(=O)(=O)c2cc(Br)cc(Br)c2)CC1` [(I-39)], with 14 nM. `O=C(NCc1ccc(F)cc1)C1CCN(S(=O)(=O)c2cc(Br)cc(Br)c2)CC1` [(I-40)]: the IC50 at hSLC13A5 [2] came out at 26 nM; at hSLC13A5 [1] it was 17 nM. In the case of `Cc1cc(C)cc(S(=O)(=O)N2CCC(C(=O)NCc3ccc(F)cc3)CC2)c1` [(I-42)], the IC50 against hSLC13A5 [1] was 35 nM. `Cc1cc(C)cc(S(=O)(=O)N2CCC(C(=O)NCc3ccc(C#N)cc3)CC2)c1` [(I-43)] registered an IC50 against hSLC13A5 [1] of 46 nM. `Cc1cc(C)cc(S(=O)(=O)N2CCC(C(=O)NCc3ccc(Cl)cc3)CC2)c1` [(I-45)] came in with an IC50 at hSLC13A5 [1] of 25 nM.

On to `Cc1cc(C)cc(S(=O)(=O)N2CCC(C(=O)NCc3ccccc3F)CC2)c1` [(I-47)], for which, on hSLC13A5 [1], it took 34 nM to reach half-maximal inhibition (IC50). Still for that read-out and setting: for `Cc1cc(C)cc(S(=O)(=O)N2CCC(C(=O)NCc3ccc(Br)cc3)CC2)c1` [(I-48)] the value was 17 nM.

The values are drawn from US10793522B2, “Sulfonamides as inhibitors of the uptake of extracellular citrate” (Boehringer Ingelheim International GmbH, priority 2016, dated 2020).
